The record followed here is US12365655B2, “Compounds” (CTXT PTY LTD, priority 2018, dated 2025).

Usually IC50 stands for the concentration needed to halve the response being measured. Low values mean higher potency, high ones lower potency.

The target of assay [1] is HBO-KAT7 (Homo sapiens, UniProt O95251). Description: Acetyltransferase biochemical assay (AlphaScreen), KAT7.
The target in assay [2] is MOZ-KAT6A (Homo sapiens, UniProt Q92794, A567V). Description: Acetyltransferase biochemical assay (AlphaScreen), KAT6A. A general note: Alpha assays give light when donor and acceptor beads are brought close together.
The target of assay [3] is TIP60-KAT5 (Homo sapiens, UniProt Q92993). Description: Acetyltransferase biochemical assay (AlphaScreen), KAT5.
Sequence of TIP60-KAT5 (Q92993 with tags, fused parts or gaps isoform Q92993-2): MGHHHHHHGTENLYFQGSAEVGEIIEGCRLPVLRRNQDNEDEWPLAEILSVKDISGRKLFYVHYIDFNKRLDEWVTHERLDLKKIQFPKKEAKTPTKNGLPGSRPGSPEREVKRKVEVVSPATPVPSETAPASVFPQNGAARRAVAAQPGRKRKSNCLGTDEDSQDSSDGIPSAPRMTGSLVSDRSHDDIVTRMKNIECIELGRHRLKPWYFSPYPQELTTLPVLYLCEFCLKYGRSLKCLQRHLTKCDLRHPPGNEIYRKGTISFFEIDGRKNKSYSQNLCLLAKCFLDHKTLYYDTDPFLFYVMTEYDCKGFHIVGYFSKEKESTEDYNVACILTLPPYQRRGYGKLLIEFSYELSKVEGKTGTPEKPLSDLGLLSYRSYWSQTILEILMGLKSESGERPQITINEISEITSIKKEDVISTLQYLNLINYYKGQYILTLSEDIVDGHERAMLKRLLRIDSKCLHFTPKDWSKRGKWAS

Sequence of MOZ-KAT6A (Q92794 with tags, fused parts or gaps A567V): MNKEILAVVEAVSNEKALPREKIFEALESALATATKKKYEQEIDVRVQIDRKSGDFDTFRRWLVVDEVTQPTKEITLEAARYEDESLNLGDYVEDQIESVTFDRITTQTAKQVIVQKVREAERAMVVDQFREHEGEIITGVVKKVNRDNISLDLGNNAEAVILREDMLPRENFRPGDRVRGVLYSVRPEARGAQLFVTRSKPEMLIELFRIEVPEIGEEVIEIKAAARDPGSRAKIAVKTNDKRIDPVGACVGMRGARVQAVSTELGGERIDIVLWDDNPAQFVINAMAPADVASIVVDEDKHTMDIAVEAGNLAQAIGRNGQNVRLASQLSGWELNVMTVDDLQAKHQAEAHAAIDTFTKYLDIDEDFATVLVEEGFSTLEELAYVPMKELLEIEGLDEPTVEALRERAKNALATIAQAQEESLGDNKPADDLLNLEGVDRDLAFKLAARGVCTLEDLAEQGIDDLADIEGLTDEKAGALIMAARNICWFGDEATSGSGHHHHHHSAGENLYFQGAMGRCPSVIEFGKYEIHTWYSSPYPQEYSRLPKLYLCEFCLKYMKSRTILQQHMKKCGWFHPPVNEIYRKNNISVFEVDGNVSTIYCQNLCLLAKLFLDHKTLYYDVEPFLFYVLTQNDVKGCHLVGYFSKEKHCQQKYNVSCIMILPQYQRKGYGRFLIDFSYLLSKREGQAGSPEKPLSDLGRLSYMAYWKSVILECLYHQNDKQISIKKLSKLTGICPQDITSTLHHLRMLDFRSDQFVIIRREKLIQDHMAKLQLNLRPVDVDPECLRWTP
Sequence of HBO-KAT7 (O95251 with tags, fused parts or gaps): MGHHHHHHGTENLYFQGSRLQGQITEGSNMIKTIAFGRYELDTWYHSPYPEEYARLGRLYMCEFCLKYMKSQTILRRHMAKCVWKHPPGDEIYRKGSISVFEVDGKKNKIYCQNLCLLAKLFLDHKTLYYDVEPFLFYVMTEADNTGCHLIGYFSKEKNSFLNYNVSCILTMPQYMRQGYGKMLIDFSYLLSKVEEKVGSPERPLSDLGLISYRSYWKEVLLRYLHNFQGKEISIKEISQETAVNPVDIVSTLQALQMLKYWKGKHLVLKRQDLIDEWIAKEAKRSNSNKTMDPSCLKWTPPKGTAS

In the case of `O=S(=O)(Nc1noc2cccc(Cl)c12)c1cccc2c1OCCO2` [Example 39, N-(4-chlorobenzo [d]isoxazol-3-yl)-2,3-dihydrobenzo[b][1,4]dioxine-5-sulfonamide], the IC50 in assay [1] is 10.1 µM; in assay [2], 38.2 µM; in assay [3], > 125 µM.
For `COc1ccc(C(C)(C)C)cc1S(=O)(=O)Nc1noc2cccc(Cl)c12` [Example 40, 5-(tert-butyl)-N-(4-chlorobenzo[d]isoxazol-3-yl)-2-methoxy benzenesulfonamide], the IC50 in assay [1] was 19.9 µM; in assay [2] it was 2.13 µM; in assay [3], 121 µM.
For the molecule `COc1ccc(C(C)C)cc1S(=O)(=O)Nc1noc2cccc(Cl)c12` [Example 41, N-(4-chlorobenzo [d]isoxazol-3-yl)-5-isopropyl-2-methoxybenzene sulfonamide], the values for the IC50 in assay [1], in assay [2] and in assay [3] were 11.8 µM, 4.27 µM and 65.1 µM, respectively.
Consider `O=S(=O)(Nc1noc2cccc(Cl)c12)c1ccc2c(c1)CCCC2` [Example 42, N-(4-chlorobenzo [d]isoxazol-3-yl)-5,6,7,8-tetrahydronaphthalene-2-sulfonamide], for which the values for the IC50 in assay [1], in assay [2] and in assay [3] were 8.38 µM, 5.95 µM and 11.6 µM, respectively.
For the molecule `O=S(=O)(Nc1noc2cccc(Cl)c12)c1cccc(-c2ccccc2)c1` [Example 43, N-(4-chlorobenzo [d]isoxazol-3-yl)-[1,1-biphenyl]-3-sulfonamide], the IC50 in assay [1] turned out to be 12.9 µM; in assay [2] it was 5.97 µM; in assay [3], 23 µM.
With `O=S(=O)(Nc1noc2cccc(Cl)c12)c1ccc2c(c1)CCC2` [Example 44, N-(4-chlorobenzo [d]isoxazol-3-yl)-2,3-dihydro-1H-indene-5-sulfonamide], the half-inhibitory concentration (IC50) was 10.8 µM in assay [1], 10.6 µM in assay [2] and 60.2 µM in assay [3].
For `COc1ccc(Br)cc1S(=O)(=O)Nc1noc2cccc(Cl)c12` [Example 45], the figures for the IC50 in assay [1], in assay [2] and in assay [3] were 6.83 µM, 2.08 µM and 34.3 µM, respectively.
As to `COc1ccc(OC)c(S(=O)(=O)Nc2noc3ccccc23)c1` [Example 46, N-(benzo[d]isoxazol-3-yl)-2,5-dimethoxybenzene-sulfonamide], the IC50 in assay [1] was 74.4 µM; in assay [2], 36.2 µM; in assay [3], > 125 µM.
The corresponding values for `COc1ccc(C)cc1S(=O)(=O)Nc1noc2ccccc12` [Example 47, N-(benzo[d]isoxazol-3-yl)-2-methoxy-5-methyl benzene sulfonamide] are 29.4 µM, 12.9 µM and 123 µM.
Taken in the same sequence, the figures for `COc1ccc(C(C)(C)C)cc1S(=O)(=O)Nc1noc2ccccc12` [Example 48, N-(benzo[d]isoxazol-3-yl)-5-(tert-butyl)-2-methoxy benzene sulfonamide] were 54.8 µM, 7.41 µM and 92.9 µM.
On to `COc1ccc(C(C)C)cc1S(=O)(=O)Nc1noc2ccccc12` [Example 49, N-(benzo[d]isoxazol-3-yl)-5-isopropyl-2-methoxy benzene sulfonamide], for which the IC50 in assay [1] was 77.8 µM; in assay [2], 8.13 µM; in assay [3] it was 74.6 µM.
With `COC(=O)c1ccc(OC)c(S(=O)(=O)Nc2noc3ccccc23)c1` [Example 50, methyl 3-(N-(benzo[d]isoxazol-3-yl)sulfamoyl)-4-methoxy benzoate], the IC50 in assay [1] is > 125 µM; in assay [2], 123 µM; in assay [3] it was > 125 µM.
With `COc1cc(C)c(Cl)cc1S(=O)(=O)Nc1noc2ccccc12` [Example 51, N-(benzo[d]isoxazol-3-yl)-5-chloro-2-methoxy-4-methylbenzene sulfonamide], the IC50 in assay [1] is 28.3 µM; in assay [2] it was 15 µM; in assay [3], 87.7 µM.
Regarding `CCc1cccc(S(=O)(=O)Nc2noc3ccccc23)c1` [Example 52, N-(benzo[d]isoxazol-3-yl)-3-ethylbenzene sulfonamide], the figures for the IC50 in assay [1], in assay [2] and in assay [3] were > 125 µM, 85.3 µM and > 125 µM, respectively.
Regarding `CCc1ccc(S(=O)(=O)Nc2noc3ccccc23)cc1` [Example 53, N-(benzo[d]isoxazol-3-yl)-4-ethylbenzene sulfonamide], the IC50 was > 125 µM in assay [1], 90.7 µM in assay [2] and > 125 µM in assay [3].
As for `COc1ccc(-n2cccn2)cc1S(=O)(=O)Nc1noc2ccccc12` [Example 54, N-(benzo[d]isoxazol-3-yl)-2-methoxy-5-(1H-pyrazol-1-yl)benzene sulfonamide], the IC50 was > 125 µM in assay [1], 63 µM in assay [2] and > 125 µM in assay [3].
`COc1ccc(-c2ccno2)cc1S(=O)(=O)Nc1noc2ccccc12` [Example 55, N-(benzo[d]isoxazol-3-yl)-5-(isoxazol-5-yl)-2-methoxybenzene sulfonamide]: the IC50 in assay [1] is > 125 µM; in assay [2], 103 µM; in assay [3], > 125 µM.
On to `CCc1ccc(CC)c(S(=O)(=O)Nc2noc3ccccc23)c1` [Example 56, N-(benzo[d]isoxazol-3-yl)-2,5-diethylbenzene sulfonamide], for which the IC50 in assay [1] is > 125 µM; in assay [2], 72.8 µM; in assay [3] it was > 125 µM.
As for `CCOc1ccc(CC)cc1S(=O)(=O)Nc1noc2ccccc12` [Example 57, N-(benzo[d]isoxazol-3-yl)-2-ethoxy-5-ethylbenzene sulfonamide], the IC50 is > 125 µM in assay [1], 56.2 µM in assay [2] and > 125 µM in assay [3].
For the molecule `COc1ccccc1S(=O)(=O)Nc1noc2ccccc12` [Example 58, N-(benzo[d]isoxazol-3-yl)-2-methoxybenzene sulfonamide], the IC50 in assay [1] was 16.6 µM; in assay [2] it was 28.4 µM; in assay [3], > 125 µM.
The corresponding values for `Cc1c(Cl)cccc1S(=O)(=O)Nc1noc2ccccc12` [Example 59, N-(benzo[d]isoxazol-3-yl)-3-chloro-2-methylbenzene-sulfonamide] are > 125 µM, 49.4 µM and > 125 µM.
Consider `O=S(=O)(Nc1noc2ccccc12)c1cccc(Cl)c1Cl` [Example 60, N-(benzo[d]isoxazol-3-yl)-2,3-dichlorobenzene-sulfonamide], for which the values for the IC50 in assay [1], in assay [2] and in assay [3] were > 125 µM, 116 µM and > 125 µM, respectively.
On to `O=S(=O)(Nc1noc2ccccc12)c1ccc(Cl)c(Cl)c1` [Example 61, N-(benzo[d]isoxazol-3-yl)-3,4-dichlorobenzene-sulfonamide], for which the IC50 in assay [1] is > 125 µM; in assay [2], 51.9 µM; in assay [3], 85.4 µM.
Turning to `O=S(=O)(Nc1noc2ccccc12)c1ccc(Cl)cc1Cl` [Example 62, N-(benzo[d]isoxazol-3-yl)-2,4-dichlorobenzene-sulfonamide], the IC50 in assay [1] is 70.6 µM; in assay [2], 43.7 µM; in assay [3], > 125 µM.
The corresponding values for `CCc1ccc(OC)c(S(=O)(=O)Nc2noc3ccccc23)c1` [Example 63, N-(benzo[d]isoxazol-3-yl)-5-ethyl-2-methoxy benzene-sulfonamide] are 60.1 µM, 2.56 µM and > 125 µM.
The corresponding values for `O=S(=O)(Nc1noc2ccccc12)c1ccc2c(c1)CCC2` [Example 64, N-(benzo[d]isoxazol-3-yl)-2,3-dihydro-1H-indene-5-sulfonamide] are 106 µM, 26.7 µM and > 125 µM.
With `O=S(=O)(Nc1noc2ccccc12)c1ccc2c(c1)CCCC2` [Example 65, N-(benzo[d]isoxazol-3-yl)-5,6,7,8-tetrahydro-naphthalene-2-sulfonamide], the results for the IC50 in assay [1], in assay [2] and in assay [3] were 59.7 µM, 27.9 µM and > 125 µM, respectively.
As for `O=S(=O)(Nc1noc2ccccc12)c1ccc2ccccc2c1` [Example 66, N-(benzo[d]isoxazol-3-yl)naphthalene-2-sulfonamide], the IC50 in assay [1] was 114 µM; in assay [2], 14.6 µM; in assay [3], 123 µM.
Turning to `Cc1nnc(-c2cccc(S(=O)(=O)Nc3noc4ccccc34)c2)o1` [Example 67, N-(benzo[d]isoxazol-3-yl)-3-(5-methyl-1,3,4-oxadiazol-2-yl)benzene sulfonamide], the IC50 in assay [1] is > 125 µM; in assay [2] it was 22.7 µM; in assay [3], 115 µM.
Turning to `O=S(=O)(Nc1noc2ccccc12)c1ccc(Br)cn1` [Example 68, N-(benzo[d]isoxazol- -3-yl)-5-bromopyridine-2-sulfonamide], the IC50 was > 125 µM in assay [1], 85.1 µM in assay [2] and > 125 µM in assay [3].
In the case of `O=S(=O)(Nc1noc2ccccc12)c1ccc(-c2ccccc2)cc1` [Example 69, N-(benzo[d]isoxazol-3-yl)-[1,1-biphenyl]-4-sulfonamide], the IC50 in assay [1] was 94.1 µM; in assay [2], 42.9 µM; in assay [3] it was 124 µM.
As to `O=S(=O)(Nc1noc2ccccc12)c1cccc(-c2ccccc2)c1` [Example 70, N-(benzo[d]isoxazol-3-yl)-[1,1-biphenyl]-3-sulfonamide], the IC50 in assay [1] was found to be 32 µM; in assay [2], 31.3 µM; in assay [3], 36.8 µM.
With `O=S(=O)(Nc1noc2ccccc12)c1ccc(C2CCCCC2)cc1` [Example 71, N-(benzo[d]isoxazol-3-yl)-4-cyclohexyl benzene-sulfonamide], the IC50 in assay [1] stood at 21.6 µM; in assay [2], 11.6 µM; in assay [3], 28.4 µM.
The corresponding values for `COc1cc(C)cc(C)c1S(=O)(=O)Nc1noc2cccc(OC)c12` [Example 72, 2-methoxy-N-(4-methoxybenzo[d]isoxazol-3-yl)-4,6-dimethylbenzene sulfonamide] are 11.4 µM, 46.2 µM and > 125 µM.
